Assay results taken from US20250340837A1, “CELLS” (University of Geneva, priority 2022, published 2025).
Blank lines part the entries; values can stand above or below the molecule they belong to.

Legend:
phoenix auditory neurons [1] = experiment: Induced Ca2+ cytosolic release (FLUO-8) in differentiated phoenix auditory neurons; assay type: cell-based, mouse; settings: for EC50: D7 differentiated phoenix SGCs, dose response from max-min amplitude, read-out: EC50 of induced Ca2+ transients; for Induction of Ca2+ transients: phoenix auditory neurons after 7 days of differentiation
Procedure: (A-C) Kinetics of Ca^2+ transients induced by (A) Glutamate (higher trace for the higher concentration), (B) ATP (higher trace for the higher concentration), (C) Kainate in phoenix auditory neurons after 7 days of differentiation. Phoenix auditory neurons were loaded with Ca^2+ sensitive ratiometric probe (FLUO-8) and stimulated with increasing concentrations of glutamate ([…]), ATP (0.005-10 μM) or kainate (0.02-50 μM). (D) Dose response curves were extracted from the max-min amplitude values, allowing the determination of an EC50 value (in order of highest to lowest effect: Ionomycin, ATP, Glutamate, Thapsigargin and Kainate (no effect for Kainate). (E). Ionomycin and Thapsigargin were used as positive control. Data represent the average+/−SEM of 3 independent experiments.
A total of 32,000 cells/well were differentiated to auditory neurons on a 96-well plate coated with Matrigel, as previously described (Rousset et al., 2020). Differentiated cells were loaded with FLUO-8 (Interchim), according to the manufacturer's protocol. After an incubation period of typically 45 min at 37° C. with the inducing agent or control, the induced cytosolic calcium release was assessed in a FDSS/pCELL Functional Drug Screening System (Hamamatsu). The neuronal kinetics of calcium release was followed over about 10 min following treatment, with one measure every 0.5 s.
(§1) To further explore the excitatory function of differentiated phoenix SGCs, Ca2+ mobilization was studied in response to several physiological stimuli, namely glutamate, ATP, and kainate (FIG. 4). […] Ionomycin, an ionophore facilitating the transport of divalent cations across cell membranes, and thapsigargin, inhibiting the SERCA pump and therefore the transfer of Ca^2+ toward endoplasmic reticulum, were used as positive controls (FIG. 4D). The excitatory pattern of phoenix SGCs was also compared with human fetal sphere-derived ones and mouse spiral ganglion explants using live Ca^2+ imaging. […] Therefore, at any passage and following differentiation, phoenix auditory SGCs resemble the auditory neuron physiology.
Further, the impact of BDNF and NT-3 alone or in combination on phoenix auditory neurons' glutamatergic function was assessed. Phoenix neuroprogenitors were plated on poly-ornithine and laminin coated 96 well plates and differentiated for 7 days with or without BDNF and NT-3 alone or in combination. To assess effect of neurotrophins, the auditory neuron were stimulated twice with glutamate: first with 10 μM (EC90) and 10 min later with 100 μM, eliciting a maximal glutamatergic response (FIG. 15A). Traces show the Ca2+ mobilization kinetics with 50 ng/mLNT-3+25 ng/mL BDNF (top light curve) or without neurotrophins (bottom dark curve) upon glutamate stimulation as recorded with Ca2+ sensitive ratiometric probe (FLUO-8). Arrows show the max-min amplitude of the response following the first (10 μM) or the second (100 μM) glutamate stimulation. Heatmaps showing the effect of BDNF and NT-3 alone or in combination on Ca2+ release (min-max amplitude) induced by 10 μM glutamate (FIG. 15B) and 100 μM glutamate (FIG. 15C).

C57Bl/6 ANPGs [2] = experiment: Neurosphere growth and self-propagation induction in low stemness ANPGs; assay type: cell-based, mouse
Procedure: (B) Picture showing representative triplicate of ANPG spheres cultured for 1 month in a 96 well plate. Phoenix cells are used as positive control. C57Bl/6: ANPGs were cultured in DMEM:F12+N2 and B27 supplements without growth factors. +GF: DMEM:F12+N2 and B27+FGF 10 ng/mL+EGF 20 ng/mL+IGF 50 ng/mL+Heparan Sulfate 50 ng/mL. GF+DS:DMEM:F12+N2 and B27+IGF+EFG+HS+FGF+LDN193189 0.5 μM+SB431542 10 μM. GF+CHIR: DMEM:F12+N2 and B27+IGF+EFG+HS+FGF+CHIR99021 3 μM. +GF+CHIR+DS: DMEM:F12+N2 and B27+IGF+EFG+HS+FGF+LDN193189 0.5 μM+SB431542 10 μM+CHIR99021 3 μM. Phoenix+GF: phoenix ANPG cultured in standard conditions (DMEM:F12+N2 and B27+IGF+EFG+HS+FGF). (C) Graph showing the average sphere area at different time points (up to 38 days). […] (D) Following DNA staining, flow cytometry was performed to determine the percentage of cells engaged in the cell cycle (phase S/G2M; proliferating). […] (E) After reprogramming, ANPGs were differentiated on Matrigel coating following removal of mitogenic factors. […]
(B) Representative pictures of ANPG spheres 4 days following the first passage cultured in “standard” conditions (GF) or (C, left) in conditions to induce stemness (GF+LDN193189 0.5 μM+SB431542 10 μM+CHIR99021 3 μM). […] (D) At every passage, following dissociation with Accutase, ANPGs were counted with a fast read counting chamber. […]

C57Bl/6 ANPGs [3] = experiment: Stemness reprogramming screen with pharmacological modulators plus CHIR99021; assay type: cell-based, mouse; settings: 30 days, with CHIR99021 3 μM
Procedure: (C) C57Bl/6 ANPGs were plated at 10,000 cells/well of a 96 well plate and treated with the WNT agonist (CHIR99021; 3 μM) and the above mentioned compounds (B) for 30 days. Graph representing the average growth (% ANPGs cultured in presence of GF+CHIR) after 30 days. […] Data represent the average±SEM of three independent experiments.
C57Bl/6 ANPGs were plated at 10,000 cells/well of a 96 well plate and treated with the WNT agonist (CHIR99021; 3 μM) and various modulator(s).

stemness-induced ANs = experiment: Glutamate-induced Ca2+ response in stemness-induced auditory neurons (Regenix); assay type: cell-based, mouse
Procedure: FIG. 21 Phenotypical characterization of stemness induced Auditory Neurons (ANs). (A) C57Bl/6 ANPG, were treated with WNT agonist (CHIR99021; 3 μM) or TGFb antagonist (dual SMAD inhibitors; LDN193189 0.5 μM, SB431542 10 μM) aiming at replicating phoenix ANPG stemness phenotype. After 38 days of induction, stemness-induced ANPGs were differentiated on Matrigel coating following removal of mitogenic factors. BDNF (10 ng/mL), NT-3 (50 ng/mL) and LIF (10 ng/mL) were added during the 7 days of differentiation. (B-E) Immunostainings in differentiated ANs were compared to stemness-induced ANPGs neurospheres at the same passage. (B-B′) B-III tubulin (TUJ, green) and Sox2 (red) stainings were respectively performed in (B) ANPGs and (B′) ANs. (C-C′) B-III tubulin (TUJ, green) and Nestin (Nes, red) stainings were respectively performed in (C) ANPGs and (C′) ANs. D-D′) B-III tubulin (TUJ, green) and S100 (red) stainings were respectively performed in (D) ANPGs and (D′) ANs. E-E′) B-III tubulin (TUJ) and KI67 stainings were respectively performed in (E) ANPGs and (E′) ANs. TUJ staining appears in green in ANPGs and red in ANs and KI67 appears in red in ANPGs and in green in ANs. […] (F-G) Excitatory potential of stemness-induced ANs was tested using live Ca^2+ imaging. Stemness-induced ANPGs were differentiated for 7 days in absence of growth factors. […]

[4] = system: mouse spiral ganglion explants; experiment: Live Ca2+ imaging in mouse spiral ganglion explants; assay type: cell-based
Description: as §1

[5] = system: human fetal sphere-derived SGCs; experiment: Live Ca2+ imaging in human fetal sphere-derived SGCs; assay type: cell-based
Description: as §1

phoenix auditory neurons [6] = experiment: Morphology of phoenix auditory neurons differentiated with neurotrophins (Imaris); assay type: cell-based, mouse; settings: 72 h differentiation; peaking at 100 ng/mL
Procedure: FIG. 14 Impact of BDNF and NT-3 supplementation on morphology of phoenix auditory neurons. Phoenix neuroprogenitors were differentiated for 72 h in presence of various concentrations of BDNF or NT-3 in 96-well plates. […] (A-D) The untreated control is represented by the bar in the left of each of the four graphs, BDNF treated specimens in the bars in the middle of each of the four graphs, and NT-3 treated by the bars on the right of each of the four graphs. The dashed horizontal grey line marks the median of the control group. The numbers on the x-axis denote neurotrophin concentrations in ng/ml. The horizontal lines in the boxes denote the median value and the dots the mean value. Whiskers extend from minimum to maximum. […] Exemplary images of differentiated cells after 72 h in culture and immunohistochemical staining without treatment (E) and supplementation of 100 ng/mL BDNF (F) and 100 ng/mL NT-3 (G). (E-G) Scale bar: 100 μm.
(§2) Organotypic spiral ganglion explant culture was carried out prior to in vitro phoenix sphere derived neuron assays, as shown in the workflow in FIG. 12. […] After fixation, specimens were stained with DAPI and for β-III-tubulin (TuJI antibody) to address the effect of neurotrophins on neurite outgrowth and neuron numbers, quantified with a modified Sholl analysis routine. For each explant, the neurite length index (NLI) was computed, and associated intersection counts served as approximation for neuron numbers. The lower rows show phoenix auditory neuroprogenitor sphere dissociation and induction of differentiation. To assess the outgrowth morphology, cells were seeded at 7,000 cells/well with presence of NT-3 or BDNF for 72 h. Differentiated cells were stained for β-III-tubulin, GFAP and DAPI for morphological analysis. Parameters such as the total neurite outgrowth, the number of neurons, the number of glial cells and the mean neurite length were assessed using a custom-made Imaris procedure. For a functional evaluation by means of a calcium response assay to glutamate, 30,000 cells were seeded per well and differentiated with supplementation of BDNF, NT-3 or combinations thereof. Via a fluorescent calcium binding dye, the cellular response to glutamate was quantified.
The impact of BDNF and NT-3 supplementation on morphology of phoenix auditory neurons was also assessed. Phoenix neuroprogenitors were differentiated for 72 h in presence of various concentrations of BDNF or NT-3 in 96-well plates.

[7] = system: spiral ganglion explants (SGE); experiment: Organotypic spiral ganglion explant culture, neurite outgrowth and intersections (modified Sholl analysis); assay type: cell-based, mouse; settings: P7 SGE, 96 h; for Neurite outgrowth (neurite length index, NLI): compared to spontaneous outgrowth
Procedure: FIG. 13 Effect of BDNF and NT-3 alone or in combination on organotypic spiral ganglion explant culture morphology. Spiral ganglion explants (SGE) of freshly dissected P7 old mouse pups were seeded in poly-D-lysin and laminin coated 96 well plates and incubated without (n=94) or with BDNF, NT-3 or combinations of these for 96 h. Neurite outgrowth (A-C) and intersections (D-F) were quantified with representative explant micrographs underneath (G) for the given treatments. Numbers indicate the amount of neurotrophin added in ng/ml. […] In controls, a substantial outgrowth with a mean NLI of 20828 (±5647/4442; n=94), was registered. […] (D-F) Bar graphs show the intersection quantification, representing the approximated number of neurons with outgrowth. […] (A-F) Bars represent geometric means in μm; error bars indicate ±upper and lower 95% confidence intervals for the mean. The shaded area in the bottom section of each graph represents control levels (i.e. levels for samples that were not treated with BDNF and/or NT-3). One-way ANOVA, followed by Tukey-Kramer post-hoc test. Dunn non-parametric comparison with control, *p<0.05, **p<0.01, ***p<0.001.
as §2
The effect of BDNF and NT-3 alone or in combination on organotypic spiral ganglion explant culture morphology was assessed. […] Neurite outgrowth (FIG. 13 A-C) and intersections (FIG. 13 D-F) were quantified. […]

Molecule: Nc1ncnc2c1ncn2[C@@H]1O[C@H](COP(=O)(O)OP(=O)(O)OP(=O)(O)O)[C@@H](O)[C@H]1O [ATP]
EC50 (phoenix auditory neurons [1]): 430 nM
Induction of Ca2+ transients (phoenix auditory neurons [1]): Robust Ca^2+ transients

Molecule: Cc1c[nH]c(-c2cnc(NCCNc3ccc(C#N)cn3)nc2-c2ccc(Cl)cc2Cl)n1 [CHIR, CHIR99021]
ability of treated ANPGs to differentiate into neurons and glial cells (C57Bl/6 ANPGs [2]; 7 days differentiation on Matrigel, BIII-tubulin and S-100 staining): able to differentiate into neurons
expansion over passages (C57Bl/6 ANPGs [2]; number of cells/passage up to passage 13): not able to expand

Molecule: COc1cc(-c2cc(-c3cccc(O)c3)cnc2N)cc(OC)c1OC [compound 48, K02288]
stemness reprogramming, average growth (% ANPGs cultured in presence of GF+CHIR) (C57Bl/6 ANPGs [3]): hits

EC50 (phoenix auditory neurons [1]): 1160 nM
EC50 of glutamate-induced Ca2+ response (phoenix auditory neurons [1]; Phoenix ANs, glutamate increments, 1/2 serial dilutions): within the μM range
EC90 (phoenix auditory neurons [1]; first glutamate stimulation of phoenix auditory neurons, read-out: glutamate concentration given as EC90): 10000 nM
EC50 of glutamate-induced Ca2+ response (stemness-induced ANs; stemness-induced ANs (Regenix), glutamate increments, 1/2 serial dilutions): within the μM range
Molecule: N[C@@H](CCC(=O)O)C(=O)O [glutamate]
Induction of Ca2+ transients (phoenix auditory neurons [1]): Robust Ca^2+ transients
Ca2+ response, live Ca2+ imaging (stemness-induced ANs; glutamate 100 uM, siANs differentiated for 7 days): robust Ca2+ response

Molecule: C=C(C)[C@H]1CN[C@H](C(=O)O)[C@H]1CC(=O)O [kainate]
Evoked Ca2+ transients [4]: did not respond
Induction of Ca2+ transients (phoenix auditory neurons [1]): failed to induce Ca2+ excitatory transmission
Induction of Ca2+ transients (phoenix auditory neurons [1]; listed as Kainate): no effect
Evoked Ca2+ transients [5]: did not respond

B1: brain-derived neurotrophic factor (protein, UniProt P23560 19-247, looked up)
Neurotrophic factor BDNF …: APMKEANIRGQGGLAYPGVRTHGTLESVNGPKAGSRGLTSLADTFEHVIEELLDEDQKVRPNEENNKDADLYTSRVMLSSQVPLEPPLLFLLEEYKNYLDAANMSMRVRRHSDPARRGELSVCDSISEWVTAADKKTAVDMSGGTVTVLEKVPVSKGQLKQYFYETKCNPMGYTKEGCRGIDKRHWNSQCRTTQSYVRALTMDSKKRIGWRFIRIDTSCVCTLTIKRGR
notes: neurotrophin
number of glial cells (exclusively GFAP positive cells) (phoenix auditory neurons [6]): increased in general in a dose depended manner
number of neurons (exclusively beta-III-tubulin positive cells) (phoenix auditory neurons [6]): increased in general in a dose depended manner
total neurite outgrowth (phoenix auditory neurons [6]): increased in general in a dose depended manner
Intersections (approximated number of neurons with outgrowth) [7]: rose significantly in a dose-dependent manner
Neurite outgrowth (neurite length index, NLI) [7]: significantly enhanced

B2: neurotrophin-3 (protein, UniProt P20783 139-257, looked up)
Neurotrophin-3: YAEHKSHRGEYSVCDSESLWVTDKSSAIDIRGHQVTVLGEIKTGNSPVKQYFYETRCKEARPVKNGCRGIDDKHWNSQCKTSQTYVRALTSENNKLVGWRWIRIDTSCVCALSRKIGRT
number of glial cells (exclusively GFAP positive cells) (phoenix auditory neurons [6]): increased in general in a dose depended manner
number of neurons (exclusively beta-III-tubulin positive cells) (phoenix auditory neurons [6]): increased in general in a dose depended manner
total neurite outgrowth (phoenix auditory neurons [6]): increased in general in a dose depended manner
Intersections (approximated number of neurons with outgrowth) [7]: rose significantly in a dose-dependent manner
Neurite outgrowth (neurite length index, NLI) [7]: significantly enhanced
